Reference: patent US3959256A
Values after ≈ are worked out from the molar mass of the structure shown. Like-named read-outs stand apart in the source and are kept apart here.

Key:
[1] = tested on: Diplococcus pneumoniae Type III; experiment: Minimum inhibitory concentration, standard serial dilution method; format: cell-based; details: Streptococcus pneumoniae, Brain Heart Infusion broth, 37°C, 24 hours, read-out: Minimum Inhibitory Concentrations
Procedure: (§1) The minimum inhibitory concentrations of these compounds to various microorganisms were determined according to a standard serial dilution method using Brain Heart Infusion broth as the incubation medium at 37°C, the estimation of the growth of the microorganisms being effected after 24 hours' incubation.

[2] = tested on: Staphylococcus aureus 209P; experiment: as above; format: cell-based; details: Brain Heart Infusion broth, 37°C, 24 hours, read-out: Minimum Inhibitory Concentrations
Procedure: as §1

[3] = tested on: Streptococcus hemolyticus D-90; experiment: as above; format: cell-based; details: Streptococcus pyogenes, D90, Brain Heart Infusion broth, 37°C, 24 hours, read-out: Minimum Inhibitory Concentrations
Procedure: as §1

[4] = tested on: Staphylococcus aureus Terajima; experiment: as above; format: cell-based; details: read-out: Minimum Inhibitory Concentrations
[5] = tested on: Staphylococcus aureus Smith; experiment: as above; format: cell-based; details: read-out: Minimum Inhibitory Concentrations
[6] = tested on: Staphylococcus albus 1200A; experiment: as above; format: cell-based; details: read-out: Minimum Inhibitory Concentrations
[7] = tested on: Streptococcus faecalis ATCC 8043; experiment: as above; format: cell-based; details: Enterococcus faecalis, read-out: Minimum Inhibitory Concentrations
[8] = tested on: Streptococcus hemolyticus Cook; experiment: as above; format: cell-based; details: Streptococcus pyogenes, read-out: Minimum Inhibitory Concentrations
[9] = tested on: Streptococcus pyogenes D-58; experiment: as above; format: cell-based; details: read-out: Minimum Inhibitory Concentrations
[10] = tested on: Diplococcus pneumoniae Type I; experiment: as above; format: cell-based; details: Streptococcus pneumoniae, read-out: Minimum Inhibitory Concentrations
[11] = tested on: Bacillus subtilis PCI 219; experiment: as above; format: cell-based; details: read-out: Minimum Inhibitory Concentrations
[12] = tested on: Bacillus subtilis ATCC 6633; experiment: as above; format: cell-based; details: read-out: Minimum Inhibitory Concentrations
[13] = tested on: Bacillus anthracis No.119; experiment: microbe, parasite or virus in culture; format: cell-based; details: NO.119, 24 h, read-out: Minimum Inhibitory Concentrations
[14] = tested on: Corynebacterium diphtheriae Type gravis; experiment: Minimum inhibitory concentration, standard serial dilution method; format: cell-based; details: read-out: Minimum Inhibitory Concentrations
[15] = tested on: Corynebacterium diphtheriae Type intermedius; experiment: as above; format: cell-based; details: read-out: Minimum Inhibitory Concentrations
[16] = tested on: Sarcina lutea; experiment: as above; format: cell-based; details: Micrococcus luteus, read-out: Minimum Inhibitory Concentrations
[17] = tested on: mice; experiment: Acute toxicity in mice, intraperitoneal; details: 3,000 mg/kg intraperitoneally; one week after dosing; 3 mice per group
[18] = tested on: Staphylococcus aureus; experiment: Curative effect in therapeutic treatment of Staphylococcus aureus infections in mice; details: oral, immediately after intraperitoneal inoculation, 7th day, 10 mice per group
[19] = Staphylococcus aureus Terajima, Brain Heart Infusion broth, 37°C, 24 hours
[20] = Streptococcus hemolyticus Cook, Brain Heart Infusion broth, 37°C, 24 hours
[21] = Streptococcus pyogenes, D58, 24 h
[22] = Diplococcus pneumoniae Type I, Brain Heart Infusion broth, 37°C, 24 hours
[23] = PCI219, Bacillus subtilis PCI 219, Brain Heart Infusion broth, 37°C, 24 hours
[24] = ATCC6633, Bacillus subtilis ATCC 6633, Brain Heart Infusion broth, 37°C, 24 hours
[25] = Corynebacterium diphtheriae Type gravis, Brain Heart Infusion broth, 37°C, 24 hours
[26] = Corynebacterium diphtheriae Type intermedius, Brain Heart Infusion broth, 37°C, 24 hours
[27] = Sarcina lutea, Brain Heart Infusion broth, 37°C, 24 hours
[28] = Corynebacterium diphtheriae, 24 h

Structure (SMILES): CCC(=O)OC1CC(=O)OC(C)CC=CC=CC(OC(C)=O)C(C)CC(CC=O)C(OC2OC(C)C(OC3CC(C)(OCOC(C)=O)C(OC(=O)CC)C(C)O3)C(N(C)C)C2O)C1OC (stereo not shown) [9-O-acetyl-3"-O-acetoxymethyl-SF-837, 9-O-acetyl-3"-O-acetoxymethyl-SF-837 substance]
- MIC [1]: 1.56 µg/mL (≈ 1.68 µM)
- MIC [2]: 1.56 µg/mL (≈ 1.68 µM)
- MIC [3]: 1.56 µg/mL (≈ 1.68 µM)
- MIC [4, 19]: 3.13 µg/mL (≈ 3.37 µM)
- MIC ([5]; Staphylococcus aureus, 24 h): 1.56 µg/mL (≈ 1.68 µM)
- MIC ([6]; Staphylococcus, 1200A, 24 h): 1.56 µg/mL (≈ 1.68 µM)
- MIC ([7]; ATCC8043, 24 h): 1.56 µg/mL (≈ 1.68 µM)
- MIC [8, 20]: 0.19 µg/mL (≈ 0.205 µM)
- MIC [9, 21]: 1.56 µg/mL (≈ 1.68 µM)
- MIC [10, 22]: 0.19 µg/mL (≈ 0.205 µM)
- MIC [11, 23]: 0.78 µg/mL (≈ 0.84 µM)
- MIC [12, 24]: 0.78 µg/mL (≈ 0.84 µM)
- MIC [13]: 1.56 µg/mL (≈ 1.68 µM)
- MIC [14, 25]: 0.19 µg/mL (≈ 0.205 µM)
- MIC [15, 26]: 0.19 µg/mL (≈ 0.205 µM)
- MIC [16, 27]: 0.19 µg/mL (≈ 0.205 µM)
- Rate of the sacrificed mice (average) [17]: 0/3

Structure (SMILES): CCC(=O)OCOC1(C)CC(OC2C(C)OC(OC3C(CC=O)CC(C)C(OC(C)=O)C=CC=CCC(C)OC(=O)CC(OC(=O)CC)C3OC)C(O)C2N(C)C)OC(C)C1OC(=O)CC (stereo not shown) [9-O-acetyl-3"-O-propionyloxymethyl-SF-837 substance]
- MIC [1]: 1.56 µg/mL (≈ 1.66 µM)
- MIC [2]: 1.56 µg/mL (≈ 1.66 µM)
- MIC [3]: 1.56 µg/mL (≈ 1.66 µM)
- MIC [4, 19]: 3.13 µg/mL (≈ 3.32 µM)
- MIC ([5]; Staphylococcus aureus, 24 h): 1.56 µg/mL (≈ 1.66 µM)
- MIC ([6]; Staphylococcus, 1200A, 24 h): 1.56 µg/mL (≈ 1.66 µM)
- MIC ([7]; ATCC8043, 24 h): 1.56 µg/mL (≈ 1.66 µM)
- MIC [8, 20]: 0.19 µg/mL (≈ 0.202 µM)
- MIC [9, 21]: 1.56 µg/mL (≈ 1.66 µM)
- MIC [10, 22]: 0.19 µg/mL (≈ 0.202 µM)
- MIC [11, 23]: 0.39 µg/mL (≈ 0.414 µM)
- MIC [12, 24]: 0.78 µg/mL (≈ 0.828 µM)
- MIC [13]: 1.56 µg/mL (≈ 1.66 µM)
- MIC [14, 25]: 0.19 µg/mL (≈ 0.202 µM)
- MIC [15, 26]: 0.19 µg/mL (≈ 0.202 µM)
- MIC [16, 27]: 0.19 µg/mL (≈ 0.202 µM)
- Rate of the sacrificed mice (average) [17]: 0/3
- Rate of Surviving Mice (in percentage) ([18]; 100 mg/kg): 67 percentage
- Rate of Surviving Mice (in percentage) ([18]; 200 mg/kg): 100 percentage
- Rate of Surviving Mice (in percentage) ([18]; 400 mg/kg): 100 percentage

Structure (SMILES): CCC(=O)OC1C=CC=CCC(C)OC(=O)CC(OC(=O)CC)C(OC)C(OC2OC(C)C(OC3CC(C)(OCOC(C)=O)C(OC(=O)CC)C(C)O3)C(N(C)C)C2O)C(CC=O)CC1C (stereo not shown) [9-O-propionyl-3"-O-acetoxymethyl-SF-837, 9-O-propionyl-3"-O-acetoxymethyl-SF-837 substance]
- MIC [1]: 1.56 µg/mL (≈ 1.66 µM)
- MIC [2]: 1.56 µg/mL (≈ 1.66 µM)
- MIC [3]: 1.56 µg/mL (≈ 1.66 µM)
- MIC [4, 19]: 3.13 µg/mL (≈ 3.32 µM)
- MIC ([5]; Staphylococcus aureus Smith, Brain Heart Infusion broth, 37°C, 24 hours): 3.13 µg/mL (≈ 3.32 µM)
- MIC ([6]; Staphylococcus, 1200A, 24 h): 1.56 µg/mL (≈ 1.66 µM)
- MIC ([7]; ATCC8043, 24 h): 1.56 µg/mL (≈ 1.66 µM)
- MIC [8, 20]: 0.19 µg/mL (≈ 0.202 µM)
- MIC ([9]; D58, Streptococcus pyogenes D-58, Brain Heart Infusion broth, 37°C, 24 hours): 3.13 µg/mL (≈ 3.32 µM)
- MIC [10, 22]: 0.19 µg/mL (≈ 0.202 µM)
- MIC [11, 23]: 0.78 µg/mL (≈ 0.828 µM)
- MIC [12, 24]: 0.78 µg/mL (≈ 0.828 µM)
- MIC [13]: 1.56 µg/mL (≈ 1.66 µM)
- MIC [14, 25]: 0.19 µg/mL (≈ 0.202 µM)
- MIC [15, 26]: 0.19 µg/mL (≈ 0.202 µM)
- MIC [16, 27]: 0.19 µg/mL (≈ 0.202 µM)
- Rate of the sacrificed mice (average) [17]: 0/3
- Rate of Surviving Mice (in percentage) ([18]; 100 mg/kg): 33 percentage
- Rate of Surviving Mice (in percentage) ([18]; 200 mg/kg): 56 percentage
- Rate of Surviving Mice (in percentage) ([18]; 400 mg/kg): 100 percentage

Structure (SMILES): CCC(=O)OCOC1(C)CC(OC2C(C)OC(OC3C(CC=O)CC(C)C(OC(=O)CC)C=CC=CCC(C)OC(=O)CC(OC(=O)CC)C3OC)C(O)C2N(C)C)OC(C)C1OC(=O)CC (stereo not shown) [9-O-propionyl-3"-O-propionyloxymethyl-SF-837 substance]
- MIC [1]: 1.56 µg/mL (≈ 1.63 µM)
- MIC [2]: 1.56 µg/mL (≈ 1.63 µM)
- MIC [3]: 1.56 µg/mL (≈ 1.63 µM)
- MIC [4, 19]: 3.13 µg/mL (≈ 3.27 µM)
- MIC ([5]; Staphylococcus aureus, 24 h): 1.56 µg/mL (≈ 1.63 µM)
- MIC ([6]; Staphylococcus albus 1200A, Brain Heart Infusion broth, 37°C, 24 hours): 3.13 µg/mL (≈ 3.27 µM)
- MIC ([7]; ATCC8043, Streptococcus faecalis ATCC 8043, Brain Heart Infusion broth, 37°C, 24 hours): 3.13 µg/mL (≈ 3.27 µM)
- MIC ([8]; 24 h): 1.56 µg/mL (≈ 1.63 µM)
- MIC [9, 21]: 1.56 µg/mL (≈ 1.63 µM)
- MIC [10, 22]: 0.19 µg/mL (≈ 0.199 µM)
- MIC [11, 23]: 0.78 µg/mL (≈ 0.816 µM)
- MIC [12, 24]: 0.78 µg/mL (≈ 0.816 µM)
- MIC [13]: 1.56 µg/mL (≈ 1.63 µM)
- MIC [14, 25]: 0.19 µg/mL (≈ 0.199 µM)
- MIC [15, 26]: 0.19 µg/mL (≈ 0.199 µM)
- MIC [16, 27]: 0.19 µg/mL (≈ 0.199 µM)
- Rate of the sacrificed mice (average) [17]: 0/3
- Rate of Surviving Mice (in percentage) ([18]; 100 mg/kg): 33 percentage
- Rate of Surviving Mice (in percentage) ([18]; 200 mg/kg): 56 percentage
- Rate of Surviving Mice (in percentage) ([18]; 400 mg/kg): 100 percentage

Structure (SMILES): CCC(=O)OC1CC(=O)OC(C)CC=CC=CC(O)C(C)CC(CC=O)C(OC2OC(C)C(OC3CC(C)(O)C(OC(=O)CC)C(C)O3)C(N(C)C)C2O)C1OC (stereo not shown) [SF-837 (the free base), reference compound]
- MIC [1]: 0.04 µg/mL (≈ 0.0491 µM)
- MIC [2]: 0.78 µg/mL (≈ 0.958 µM)
- MIC [3]: 1.56 µg/mL (≈ 1.92 µM)
- MIC ([4]; Staphylococcus aureus, 24 h): 1.56 µg/mL (≈ 1.92 µM)
- MIC ([5]; Staphylococcus aureus, 24 h): 0.19 µg/mL (≈ 0.233 µM)
- MIC ([6]; Staphylococcus, 1200A, 24 h): 0.78 µg/mL (≈ 0.958 µM)
- MIC ([7]; ATCC8043, 24 h): 1.56 µg/mL (≈ 1.92 µM)
- MIC ([8]; 24 h): 0.09 µg/mL (≈ 0.111 µM)
- MIC [9, 21]: 0.09 µg/mL (≈ 0.111 µM)
- MIC ([10]; 24 h): 0.04 µg/mL (≈ 0.0491 µM)
- MIC ([11]; Bacillus subtilis, PCI219, 24 h): 0.78 µg/mL (≈ 0.958 µM)
- MIC ([12]; Bacillus subtilis, ATCC6633, 24 h): 1.56 µg/mL (≈ 1.92 µM)
- MIC [13]: 0.78 µg/mL (≈ 0.958 µM)
- MIC [14, 28]: 0.19 µg/mL (≈ 0.233 µM)
- MIC [15, 28]: 0.19 µg/mL (≈ 0.233 µM)
- MIC ([16]; 24 h): 0.09 µg/mL (≈ 0.111 µM)
- Rate of the sacrificed mice (average) [17]: 3/3
- Rate of Surviving Mice (in percentage) ([18]; 100 mg/kg): 0 percentage
- Rate of Surviving Mice (in percentage) ([18]; 200 mg/kg): 45 percentage
- Rate of Surviving Mice (in percentage) ([18]; 400 mg/kg): 67 percentage
